Test results as given in patent US7049490B2, “Gibberellin 3β-hydroxylase genes of rice and uses thereof” (priority 1999, dated 2006).
“Also recorded” adds a separate entry of the source.

Legend:
Os3β-2 fusion protein = molecular target: T1, Os3β-2 fusion protein (Oryza sativa subsp. japonica, UniProt Q9FU53, G53R); assay: Enzymatic activity assay of purified recombinant Os3β-2 fusion protein with gibberellin substrates, products identified by GC-MS; assay type: biochemical, rice (Oryza sativa); conditions: amylose-resin purified Os3β-2 fusion protein, cofactors ascorbate, ferrous iron, 2-ketoglutarate
T1 construct: a full-length cDNA is synthesized by RT-PCR using primers provided with restriction enzyme sites and subcloned into multi-cloning sites of the pMAL-c2 expression vector; made in house; host or cells: E. coli JM109
T1 sequence (Q9FU53 whole entry G53R, the tested form may be a part): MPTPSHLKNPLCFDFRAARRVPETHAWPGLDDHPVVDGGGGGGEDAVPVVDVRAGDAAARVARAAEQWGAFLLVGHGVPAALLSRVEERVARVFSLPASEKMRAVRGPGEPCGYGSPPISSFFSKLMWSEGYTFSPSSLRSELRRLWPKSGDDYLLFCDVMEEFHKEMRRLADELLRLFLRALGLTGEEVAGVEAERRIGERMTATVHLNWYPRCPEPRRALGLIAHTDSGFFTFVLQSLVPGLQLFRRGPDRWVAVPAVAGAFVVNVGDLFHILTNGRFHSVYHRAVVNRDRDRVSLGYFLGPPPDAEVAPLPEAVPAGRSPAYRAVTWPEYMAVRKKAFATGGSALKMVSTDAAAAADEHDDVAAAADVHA
Description: (§1) cDNAs for the predicted protein-coding regions of the Os3β-1 and Os3β-2 genes were each inserted into the pMAL-c2 expression vector (New England Biolabs, Beverly, Mass.) in the sense orientation to obtain a fusion translation product. The constructs thus obtained, pMAL-Os3β-1 and pMAL-Os3β-2, were expressed in E. coli strain JM109. Bacterial cells were cultured by shaking in 2×YT medium containing 100 mg/L ampicillin at 37° C. overnight. Then, the culture was diluted 100-fold with a fresh 2×YT medium containing 100 mg/L ampicillin, and further cultured with shaking at 30° C. Four hours later, IPTG was added to the culture to a final concentration of 1 mM, and the mixture was incubated with shaking at 17° C. for further 18 h. After the completion of culturing, the bacterial cells were collected, washed with a washing buffer (containing 50 mM Tris-HCl (pH 8.0), 10% (w/v) glycerol, and 2 mM DTT), suspended in the washing buffer containing lysozyme (1 mg/ml), and allowed to stand for 30 min on ice.
(§2) The cell lysate thus obtained was sonicated, centrifuged, and the supernatant was subjected to SDS-PAGE to confirm the expression of the fusion protein. For the assay of enzymatic activity of the Os3β-1 fusion protein, the supernatant was incubated with various gibberellins and cofactors (ascorbate, ferrous iron, and 2-ketoglutarate). For the activity assay of the Os3β-2 fusion protein, the supernatant was purified on a column of amylose resin according to the method described in the manual, and the purified protein thus obtained was similarly incubated as described above. Metabolized gibberellins were identified using GC-MS.

Os3β-1 fusion protein = molecular target: T2, Os3β-1 fusion protein (Oryza sativa subsp. japonica, UniProt Q6AT12, A27T/D23H/DEL15-17/DUP228-228); assay: Enzymatic activity assay of recombinant Os3β-1 fusion protein with gibberellin substrates, products identified by GC-MS; assay type: biochemical, rice (Oryza sativa); conditions: E. coli supernatant with Os3β-1 fusion protein, cofactors ascorbate, ferrous iron, 2-ketoglutarate
T2 construct: a full-length cDNA is synthesized by RT-PCR using primers provided with restriction enzyme sites and subcloned into multi-cloning sites of the pMAL-c2 expression vector; made in house; host or cells: E. coli JM109
T2 sequence (Q6AT12 other isoform, or with tags, fused parts or gaps DEL15-17/D23H/A27T/DUP228-228): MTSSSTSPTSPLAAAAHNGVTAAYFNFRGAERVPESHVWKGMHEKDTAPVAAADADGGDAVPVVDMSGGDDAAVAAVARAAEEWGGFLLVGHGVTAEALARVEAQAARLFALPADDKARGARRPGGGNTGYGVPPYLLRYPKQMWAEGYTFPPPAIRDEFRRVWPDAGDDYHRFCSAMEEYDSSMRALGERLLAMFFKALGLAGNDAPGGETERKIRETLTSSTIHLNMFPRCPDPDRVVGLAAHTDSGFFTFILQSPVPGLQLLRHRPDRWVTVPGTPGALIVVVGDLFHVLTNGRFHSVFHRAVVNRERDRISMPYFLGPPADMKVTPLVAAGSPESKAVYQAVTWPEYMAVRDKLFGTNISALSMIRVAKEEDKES
Description: as §1, §2

SMILES | Metabolized gibberellins (reaction products) from the substrate (Os3β-2 fusion protein) | Metabolized gibberellins (reaction products) from the substrate (Os3β-1 fusion protein)
C=C1C[C@]23C[C@@]1(O)CC[C@H]2[C@@]12CC=C[C@@](C)(C(=O)O1)[C@H]2[C@@H]3C(=O)O [GA5] | produced the corresponding 3β-hydroxylated gibberellins (GA3, GA4, GA1, and GA38); also recorded: production of the corresponding 3β-hydroxylated gibberellins, GA3, GA4, GA1, and GA38, respectively | only the corresponding 3β-hydroxylated gibberellins (GA3 and GA88) were obtained; also recorded: produced the corresponding 3β-hydroxylated gibberellins, GA3 and GA88, respectively
C=C1C[C@]23C[C@H]1CC[C@H]2[C@@]12CCC[C@@](C)(C(=O)O1)[C@H]2[C@@H]3C(=O)O [GA9] | produced the corresponding 3β-hydroxylated gibberellins (GA3, GA4, GA1, and GA38); also recorded: production of the corresponding 3β-hydroxylated gibberellins, GA3, GA4, GA1, and GA38, respectively | synthesis of GA4 (3β-hydroxylation), GA7 (2,3-unsaturation and 3β-hydroxylation), and GA34 (2β-hydroxylation) were confirmed; also recorded: catalyzed the production of GA4 (3β-hydroxylation), GA7 (2,3-unsaturation and 3β-hydroxylation), and GA34 (2β-hydroxylation)
C=C1C[C@]23C[C@@]1(O)CC[C@H]2[C@@]12CCC[C@@](C)(C(=O)O1)[C@H]2[C@@H]3C(=O)O [GA20] | produced the corresponding 3β-hydroxylated gibberellins (GA3, GA4, GA1, and GA38); also recorded: production of the corresponding 3β-hydroxylated gibberellins, GA3, GA4, GA1, and GA38, respectively | 
C=C1C[C@]23C[C@@]1(O)CC[C@H]2[C@@]12CCC[C@@](C)(C(=O)OC1)[C@H]2[C@@H]3C(=O)O [GA44] | produced the corresponding 3β-hydroxylated gibberellins (GA3, GA4, GA1, and GA38); also recorded: production of the corresponding 3β-hydroxylated gibberellins, GA3, GA4, GA1, and GA38, respectively | only the corresponding 3β-hydroxylated gibberellins (GA3 and GA88) were obtained; also recorded: produced the corresponding 3β-hydroxylated gibberellins, GA3 and GA88, respectively
